Assay results reported in ChEMBL document CHEMBL4665770, “Design and Discovery of Natural Cyclopeptide Skeleton Based Programmed Death Ligand 1 Inhibitor as Immune Modulator for Cancer Therapy” (J Med Chem, 2020).
Square brackets hold non-standard residues; d marks the D form. Peptide text beside a SMILES is read from it.

What follows are compounds tested against Programmed cell death protein 1/Programmed cell death 1 ligand 1 (Homo sapiens) (UniProt Q15116+Q9NZQ7) (assay: Inhibition of PD1-Tag2/PD-L1-Tag1 (unknown origin) protein-protein interaction at 20 uM preincubated for 15 mins followed by addition of anti-Tag1-Eu3+ and anti-Tag2-XL665 measured after 3 hrs by HTRF assay relative to control). Details: time 195.0 min.
Type: protein-complex assay
`CC(C)C[C@@H]1NC(=O)[C@H](CCCNC(=N)N)NC(=O)[C@H](C(C)C)NC(=O)[C@@H]2CCCN2C(=O)[C@@H](Cc2ccccc2)NC(=O)[C@H](CC(C)C)NC(=O)[C@H](CCCNC(=N)N)NC(=O)[C@H](C)NC(=O)[C@@H]2CCCN2C(=O)[C@@H](Cc2ccccc2)NC1=O` (cyclo(ARL[dF]PVRL[dF]P)) gave an inhibition of 22.4%.
Work on `CC(C)C[C@@H]1NC(=O)[C@H](CCCNC(=N)N)NC(=O)[C@H](C(C)C)NC(=O)[C@@H]2CCCN2C(=O)[C@@H](Cc2ccccc2)NC(=O)[C@H](C)NC(=O)[C@H](CC(=O)O)NC(=O)[C@H]([C@@H](C)O)NC(=O)[C@@H]2CCCN2C(=O)[C@@H](Cc2ccccc2)NC1=O` (cyclo(A[dF]PVRL[dF]PTD)) yielded an inhibition of -5.69%.
Work on `CC(C)C[C@@H]1NC(=O)[C@H](CC(=O)O)NC(=O)[C@H]([C@@H](C)O)NC(=O)[C@@H]2CCCN2C(=O)[C@@H](Cc2ccccc2)NC(=O)[C@H](CC(C)C)NC(=O)[C@H](CC(N)=O)NC(=O)[C@H](C(C)C)NC(=O)[C@@H]2CCCN2C(=O)[C@@H](Cc2ccccc2)NC1=O` (cyclo(DL[dF]PVNL[dF]PT)) yielded an inhibition of 16.6%.
Compound `CC(C)C[C@@H]1NC(=O)[C@H](CC(N)=O)NC(=O)[C@H]([C@@H](C)O)NC(=O)[C@@H]2CCCN2C(=O)[C@@H](Cc2ccccc2)NC(=O)[C@H](CC(C)C)NC(=O)[C@H](CCCNC(=N)N)NC(=O)[C@H](C(C)C)NC(=O)[C@@H]2CCCN2C(=O)[C@@H](Cc2ccccc2)NC1=O` (cyclo(L[dF]PTNL[dF]PVR)) has an inhibition of 17%.
`CC(C)C[C@@H]1NC(=O)[C@H](CCCNC(=N)N)NC(=O)[C@H]([C@@H](C)O)NC(=O)[C@@H]2CCCN2C(=O)[C@@H](Cc2ccccc2)NC(=O)[C@H](CC(C)C)NC(=O)[C@H](CC(=O)O)NC(=O)[C@H](C)NC(=O)[C@@H]2CCCN2C(=O)[C@@H](Cc2ccccc2)NC1=O` (cyclo(ADL[dF]PTRL[dF]P)) gave an inhibition of 41.2%.
With `CC(C)C[C@@H]1NC(=O)[C@H](CCCNC(=N)N)NC(=O)[C@H]([C@@H](C)O)NC(=O)[C@@H]2CCCN2C(=O)[C@@H](Cc2ccccc2)NC(=O)[C@H](CC(C)C)NC(=O)[C@H](CCCNC(=N)N)NC(=O)[C@H](C(C)C)NC(=O)[C@@H]2CCCN2C(=O)[C@@H](Cc2ccccc2)NC1=O` (cyclo(L[dF]PTRL[dF]PVR)) the inhibition was 16.9%.
Work on `CC[C@H](C)[C@@H]1NC(=O)[C@@H]2CCCN2C(=O)[C@@H](Cc2ccccc2)NC(=O)[C@H](CC(C)C)NC(=O)[C@H](CC(=O)O)NC(=O)[C@H]([C@@H](C)O)NC(=O)[C@@H]2CCCN2C(=O)[C@@H](Cc2c[nH]c3ccccc23)NC(=O)[C@H](CC(C)C)NC(=O)[C@H](CCCNC(=N)N)NC1=O` (cyclo(DL[dF]PIRL[dW]PT)) yielded an inhibition of 33.3%.
`CC(C)C[C@@H]1NC(=O)[C@H](CC(=O)O)NC(=O)[C@H]([C@@H](C)O)NC(=O)[C@@H]2CCCN2C(=O)[C@@H](Cc2ccccc2)NC(=O)[C@H](CC(N)=O)NC(=O)[C@H](CCCNC(=N)N)NC(=O)[C@H](C(C)C)NC(=O)[C@@H]2CCCN2C(=O)[C@@H](Cc2ccccc2)NC1=O` (cyclo(DL[dF]PVRN[dF]PT)) was tested, and the inhibition was 17.4%.
`CC(C)C[C@@H]1NC(=O)[C@H](CC(=O)O)NC(=O)[C@H](C(C)C)NC(=O)[C@@H]2CCCN2C(=O)[C@@H](Cc2ccccc2)NC(=O)[C@H](CC(C)C)NC(=O)[C@H](CCCNC(=N)N)NC(=O)[C@H](C(C)C)NC(=O)[C@@H]2CCCN2C(=O)[C@@H](CCC(=O)O)NC1=O` (cyclo(DL[dE]PVRL[dF]PV)) showed an inhibition of 22.5%.
Compound `CC(C)C[C@@H]1NC(=O)[C@H](CCCNC(=N)N)NC(=O)[C@H](C(C)C)NC(=O)[C@@H]2CCCN2C(=O)[C@@H](Cc2ccccc2)NC(=O)[C@H](CC(=O)O)NC(=O)[C@H](CC(C)C)NC(=O)[C@H]([C@@H](C)O)NC(=O)[C@@H]2CCCN2C(=O)[C@@H](Cc2ccccc2)NC1=O` (cyclo(D[dF]PVRL[dF]PTL)) has an inhibition of -5.92%.
With `CC(C)C[C@@H]1NC(=O)[C@H](CCCNC(=N)N)NC(=O)[C@H](C(C)C)NC(=O)[C@@H]2CCCN2C(=O)[C@@H](Cc2ccccc2)NC(=O)[C@H](CC(C)C)NC(=O)[C@H](CCCNC(=N)N)NC(=O)[C@H](C(C)C)NC(=O)[C@@H]2CCCN2C(=O)[C@@H](Cc2ccccc2)NC1=O` (cyclo(L[dF]PVRL[dF]PVR)) the inhibition was -5.54%.
Compound `CC(C)C[C@@H]1NC(=O)[C@H](CCCNC(=N)N)NC(=O)[C@H](CC(=O)O)NC(=O)[C@H](C(C)C)NC(=O)[C@@H]2CCCN2C(=O)[C@@H](Cc2ccccc2)NC(=O)[C@H](CC(C)C)NC(=O)[C@H]([C@@H](C)O)NC(=O)[C@@H]2CCCN2C(=O)[C@@H](Cc2ccccc2)NC1=O` (cyclo(DRL[dF]PTL[dF]PV)) has an inhibition of -4.8%.
`CC(NCCCC[C@@H]1NC(=O)[C@@H](Cc2ccccc2)NC(=O)[C@H](CC(C)C)N(C)C(=O)[C@H](CC(=O)O)NC(=O)[C@H]([C@@H](C)O)NC(=O)[C@@H]2CCCN2C(=O)[C@@H](Cc2c[nH]c3ccccc23)NC(=O)[C@H](CC(C)C)NC(=O)[C@H](CCCNC(=N)N)NC(=O)[C@H](C(C)C)NC1=O)=C1C(=O)CC(C)(C)CC1=O` showed an inhibition of 19.5%.
`CC(C)C[C@@H]1NC(=O)[C@H](CC(=O)O)NC(=O)[C@H]([C@@H](C)O)NC(=O)[C@@H]2CCCN2C(=O)[C@@H](Cc2ccccc2)NC(=O)[C@H](CC(C)C)NC(=O)[C@H](CC(=O)O)NC(=O)[C@H](C(C)C)NC(=O)[C@@H]2CCCN2C(=O)[C@@H](Cc2ccccc2)NC1=O` was tested, and the inhibition was -6.65%.
Compound `CC(C)C[C@@H]1NC(=O)[C@H](CCCNC(=N)N)NC(=O)[C@H](C(C)C)NC(=O)[C@@H]2CCCN2C(=O)[C@@H](Cc2ccccc2)NC(=O)[C@H](CC(C)C)NC(=O)[C@H](CCCNC(=N)N)NC(=O)[C@H](C(C)C)NC(=O)[C@H](C)NC(=O)[C@@H](Cc2ccccc2)NC1=O` (cyclo(L[dF]AVRL[dF]PVR)) has an inhibition of 27.2%.
In the case of `CC(C)C[C@@H]1NC(=O)[C@H](CCCNC(=N)N)NC(=O)[C@H](C(C)C)NC(=O)[C@@H]2CCCN2C(=O)[C@@H](Cc2ccccc2)NC(=O)[C@H](CC(C)C)NC(=O)[C@H]([C@@H](C)O)NC(=O)[C@H](CC(=O)O)NC(=O)[C@@H]2CCCN2C(=O)[C@@H](Cc2ccccc2)NC1=O` (cyclo(DTL[dF]PVRL[dF]P)), the inhibition is reported as 23.9%.
`CC(NCCCC[C@@H]1NC(=O)[C@@H](Cc2ccccc2)NC(=O)[C@H](CC(C)C)NC(=O)[C@H](CC(=O)O)NC(=O)[C@H](C(C)C)NC(=O)[C@@H]2CCCN2C(=O)[C@@H](Cc2c[nH]c3ccccc23)NC(=O)[C@H](CC(C)C)NC(=O)[C@H](CCCNC(=N)N)NC(=O)[C@H](C(C)C)NC1=O)=C1C(=O)CC(C)(C)CC1=O` was tested, and the inhibition was 3.86%.
With `CC(C)C[C@@H]1NC(=O)[C@H](CCCNC(=N)N)NC(=O)[C@H](C(C)C)NC(=O)[C@@H]2CCCN2C(=O)[C@@H](Cc2ccccc2)NC(=O)[C@H](C)NC(=O)[C@H](CCCNC(=N)N)NC(=O)[C@H](C)NC(=O)[C@@H]2CCCN2C(=O)[C@@H](Cc2ccccc2)NC1=O` (cyclo(ARA[dF]PVRL[dF]P)) the inhibition was 43.6%.
Work on `CC(C)C[C@@H]1NC(=O)[C@H](CO)NC(=O)[C@H]([C@@H](C)O)NC(=O)[C@@H]2CCCN2C(=O)[C@@H](Cc2ccccc2)NC(=O)[C@H](CC(C)C)NC(=O)[C@H](CCCNC(=N)N)NC(=O)[C@H](C(C)C)NC(=O)[C@@H]2CCCN2C(=O)[C@@H](Cc2ccccc2)NC1=O` (cyclo(L[dF]PTSL[dF]PVR)) yielded an inhibition of 29.7%.
In the case of `CC(C)C[C@@H]1NC(=O)[C@H](COP(=O)(O)O)NC(=O)[C@H]([C@@H](C)O)NC(=O)[C@@H]2CCCN2C(=O)[C@@H](Cc2ccccc2)NC(=O)[C@H](CC(C)C)NC(=O)[C@H](CCCNC(=N)N)NC(=O)[C@H](C(C)C)NC(=O)[C@@H]2CCCN2C(=O)[C@@H](Cc2ccccc2)NC1=O`, the inhibition is reported as 26%.
Compound `CC(C)C[C@@H]1NC(=O)[C@H](CCCNC(=N)N)NC(=O)[C@H](C(C)C)NC(=O)[C@@H]2CCCN2C(=O)[C@H](CC(=O)O)NC(=O)[C@@H](Cc2ccccc2)NC(=O)[C@H](CC(C)C)NC(=O)[C@H]([C@@H](C)O)NC(=O)[C@@H]2CCCN2C(=O)[C@@H](Cc2ccccc2)NC1=O` (cyclo(DPVRL[dF]PTL[dF])) has an inhibition of -0.905%.
`CC(C)C[C@@H]1NC(=O)[C@H](CCCNC(=N)N)NC(=O)[C@H](C(C)C)NC(=O)[C@@H]2CCCN2C(=O)[C@@H](Cc2ccccc2)NC(=O)[C@H](CC(C)C)NC(=O)[C@H](CCCNC(=N)N)NC(=O)[C@H](C(C)C)NC(=O)[C@@H]2CCCN2C(=O)[C@@H](C)NC1=O` (cyclo(L[dA]PVRL[dF]PVR)) showed an inhibition of 9.49%.
`CC(C)C[C@@H]1NC(=O)[C@H](CCCNC(=N)N)NC(=O)[C@H](C(C)C)NC(=O)[C@@H]2CCCN2C(=O)[C@@H](Cc2ccccc2)NC(=O)[C@H](CC(C)C)NC(=O)[C@H]([C@@H](C)O)NC(=O)[C@@H]2CCCN2C(=O)[C@@H](Cc2ccccc2)NC(=O)[C@H](CC(=O)O)NC1=O` (cyclo(D[dF]PTL[dF]PVRL)) was tested, and the inhibition was -2.13%.
In the case of `CC(C)C[C@@H]1NC(=O)[C@H](C)NC(=O)[C@H](C(C)C)NC(=O)[C@@H]2CCCN2C(=O)[C@@H](Cc2ccccc2)NC(=O)[C@H](CC(C)C)NC(=O)[C@H](CCCNC(=N)N)NC(=O)[C@H](C(C)C)NC(=O)[C@@H]2CCCN2C(=O)[C@@H](Cc2ccccc2)NC1=O` (cyclo(AL[dF]PVRL[dF]PV)), the inhibition is reported as 28.8%.
With `CC(C)C[C@@H]1NC(=O)[C@H](CCCNC(=N)N)NC(=O)[C@H](C(C)C)NC(=O)[C@@H]2CCCN2C(=O)[C@@H](Cc2ccccc2)NC(=O)[C@H](C)NC(=O)[C@H](CC(=O)O)NC(=O)[C@H](C(C)C)NC(=O)[C@@H]2CCCN2C(=O)[C@@H](Cc2ccccc2)NC1=O` (cyclo(A[dF]PVRL[dF]PVD)) the inhibition was 21.7%.
`CC(NCCCC[C@@H]1NC(=O)[C@@H](Cc2ccccc2)NC(=O)[C@H](CC(C)C)NC(=O)[C@H](CC(=O)O)NC(=O)[C@H]([C@@H](C)O)NC(=O)[C@@H]2CCCN2C(=O)[C@@H](Cc2c[nH]c3ccccc23)NC(=O)[C@H](CC(C)C)N(C)C(=O)[C@H](CCCNC(=N)N)NC(=O)[C@H](C(C)C)NC1=O)=C1C(=O)CC(C)(C)CC1=O` showed an inhibition of 16.1%.
With `CC(C)C[C@@H]1NC(=O)[C@H](CCCNC(=N)N)NC(=O)[C@H](C(C)C)NC(=O)[C@@H]2CCCN2C(=O)[C@@H](Cc2ccccc2)NC(=O)[C@H](CC(C)C)NC(=O)[C@H]([C@@H](C)O)NC(=O)[C@@H]2CCCN2C(=O)[C@H](CC(=O)O)NC(=O)[C@@H](Cc2ccccc2)NC1=O` (cyclo(DPTL[dF]PVRL[dF])) the inhibition was 12.9%.
